How the values were obtained:
Enterococcus sp. = assay: in vitro antibacterial evaluation, MIC by broth dilution; assay type: cell-based; conditions: broth dilution, 18 hours at 35° C.
In short: (§1)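 Broth dilution per NCCLS standard M7-A2 in Muller-Hinton II […], with an inoculum of 5×10^5 CFU/mL and antibiotic spanning 64-0.06 μg/mL. The MIC is the lowest concentration that inhibits growth of the organism.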

Escherichia coli = assay: as above; assay type: cell-based; conditions: 18 hours at 35° C.
In short: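 Following National Committee for Clinical Laboratory Standards recommendations (M7-A2), susceptibility was measured by dilution in Muller-Hinton II […]. Bacteria were seeded at 5×10^5 CFU/mL against compound concentrations from 64 down to 0.06 μg/mL.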

Staphylococcus sp. = assay: as above; assay type: cell-based; conditions: broth dilution, 18 hours at 35° C.
In short: as §1

Streptococcus sp. = assay: as above; assay type: cell-based; conditions: broth dilution, 18 hours at 35° C.
In short: as §1

[1] = clinical pathology (serum clinical chemistry) in mice; assay type: in vivo; conditions: CD-1 mice, 20 mg/kg intravenously daily for 9 days, sera day 10
Method: 20-day-old CD-1 mice were divided into a vehicle control group (5 mice) and a treatment group (5 mice). Samples of glycopeptide antibiotics were administered at 20 mg/kg intravenously daily for 9 days.

[2] = anatomic pathology (histopathology of heart and kidney) in mice; assay type: in vivo; conditions: CD-1 mice, 20 mg/kg intravenously daily for 9 days, necropsy day 10, microscopic histopathology
Method: Samples of tissues from necropsied mice were formalin-fixed, paraffin-embedded, sectioned, stained with hematoxylin and eosin, and examined microscopically. Histopathologic findings were recorded. These findings were subjectively graded on a scale corresponding to slight, mild, moderate, marked and severe as compared to untreated controls.

CC(c1ccccc1)C1NC(=O)CNC(=O)C(CO)NC(=O)C(CC2CNC(=N)N2C2OC(CO)C(O)C(O)C2O)NC(=O)C(CC2CNC(=N)N2)NC(=O)C(Cc2ccc(OC3OC(CO)C(OC4OC(CO)C(O)C(O)C4O)C(O)C3O)cc2)NC1=O (centres unmarked) [Example 277a]
>128 µg/mL: MIC Enterococcus faecalis (ATCC 29212) (Enterococcus sp.; Enterococcus faecalis (ATCC 29212)) | MIC Enterococcus faecalis (GC 4553) (Enterococcus sp.; Enterococcus faecalis (GC 4553)) | MIC Enterococcus faecalis (GC 4554) (Enterococcus sp.; Enterococcus faecalis (GC 4554)) | MIC Enterococcus faecalis (GC 6189) (Enterococcus sp.; Enterococcus faecalis (GC 6189)) | MIC Enterococcus faecium (GC 2243) (Enterococcus sp.; Enterococcus faecium (GC 2243)) | MIC Enterococcus faecium (GC 4556) (Enterococcus sp.; Enterococcus faecium (GC 4556)) | MIC Enterococcus faecalis (ATCC 29212) (Enterococcus sp.; strain ATCC 29212) | MIC Enterococcus faecalis (GC 2242) (Enterococcus sp.; strain GC 2242) | MIC Enterococcus faecium (GC 2243) (Enterococcus sp.; strain GC 2243) | MIC Enterococcus faecalis (GC 2691) (Enterococcus sp.; strain GC 2691) | MIC Enterococcus faecalis (GC 3059) (Enterococcus sp.; strain GC 3059) | MIC Enterococcus faecalis (GC 4552) (Enterococcus sp.; strain GC 4552) | MIC Enterococcus faecalis (GC 4553) (Enterococcus sp.; strain GC 4553) | MIC Enterococcus faecalis (GC 4554) (Enterococcus sp.; strain GC 4554) | MIC Enterococcus faecium (GC 4556) (Enterococcus sp.; strain GC 4556) | MIC Enterococcus faecalis (GC 6189) (Enterococcus sp.; strain GC 6189) | MIC Escherichia coli (ATCC 25922) (Escherichia coli; Escherichia coli (ATCC 25922)) | MIC Escherichia coli (GC 4559) (Escherichia coli; Escherichia coli (GC 4559)) | MIC Escherichia coli (GC 4560) (Escherichia coli; Escherichia coli (GC 4560)) | MIC Coagulase Negative Staphylococcus (GC 4547) (Staphylococcus sp.) | MIC Coagulase Negative Staphylococcus (GC 4548) (Staphylococcus sp.) | MIC Coagulase Negative Staphylococcus (GC 4549) (Staphylococcus sp.) | MIC Coagulase Negative Staphylococcus (GC 4551) (Staphylococcus sp.) | MIC Staphylococcus aureus (ATCC 29213) (Staphylococcus sp.) | MIC Staphylococcus aureus (GC 1131) (Staphylococcus sp.) | MIC Staphylococcus aureus (GC 3051) (Staphylococcus sp.) | MIC Staphylococcus aureus (GC 3053) (Staphylococcus sp.) | MIC Staphylococcus aureus (GC 4541) (Staphylococcus sp.) | MIC Staphylococcus aureus (GC 4542) (Staphylococcus sp.) | MIC Staphylococcus aureus (GC 4544) (Staphylococcus sp.) | MIC Staphylococcus aureus (GC 4545) (Staphylococcus sp.) | MIC Staphylococcus aureus-SMITH (GC 4543) (Staphylococcus sp.) | MIC Staphylococcus haemolyticus (GC 4546) (Staphylococcus sp.) | MIC Staphylococcus aureus (ATCC 29213) (Staphylococcus sp.; strain ATCC 29213) | MIC Staphylococcus aureus (GC 1131) (Staphylococcus sp.; strain GC 1131) | MIC Staphylococcus aureus (GC 3051) (Staphylococcus sp.; strain GC 3051) | MIC Staphylococcus aureus (GC 3053) (Staphylococcus sp.; strain GC 3053) | MIC Staphylococcus aureus (GC 4541) (Staphylococcus sp.; strain GC 4541) | MIC Staphylococcus aureus (GC 4542) (Staphylococcus sp.; strain GC 4542) | MIC Staphylococcus aureus (GC 4544) (Staphylococcus sp.; strain GC 4544) | MIC Staphylococcus aureus (GC 4545) (Staphylococcus sp.; strain GC 4545) | MIC Staphylococcus haemolyticus (GC 4546) (Staphylococcus sp.; strain GC 4546) | MIC Coagulase Negative Staphylococcus (GC 4547) (Staphylococcus sp.; strain GC 4547) | MIC Coagulase Negative Staphylococcus (GC 4548) (Staphylococcus sp.; strain GC 4548) | MIC Coagulase Negative Staphylococcus (GC 4549) (Staphylococcus sp.; strain GC 4549) | MIC Coagulase Negative Staphylococcus (GC 4551) (Staphylococcus sp.; strain GC 4551) | MIC Staphylococcus aureus-SMITH (GC 4543) (Staphylococcus sp.; strain SMITH GC 4543) | MIC Streptococcus pneumoniae (ATCC 6301) (Streptococcus sp.; strain ATCC 6301) | MIC Streptococcus pneumoniae (GC 1894) (Streptococcus sp.; strain GC 1894) | MIC Streptococcus pyogenes (GC 4563) (Streptococcus sp.; strain GC 4563) | MIC Streptococcus agalactiae (GC 4564) (Streptococcus sp.; strain GC 4564) | MIC Streptococcus pneumoniae (GC 4565) (Streptococcus sp.; strain GC 4565)
++: Anatomical Pathology (Day 10), Kidney [2]
+110%: Clinical Chemistry (Day 10) % of Control, BUN [1]
0: Anatomical Pathology (Day 10), Heart [2]
128 µg/mL: MIC Enterococcus avium (GC 4558) (Enterococcus sp.; Enterococcus avium (GC 4558)) | MIC Enterococcus faecium (GC 4557) (Enterococcus sp.; Enterococcus faecium (GC 4557)) | MIC Enterococcus faecium (GC 4557) (Enterococcus sp.; strain GC 4557) | MIC Enterococcus avium (GC 4558) (Enterococcus sp.; strain GC 4558)
